Source: publication PMC2652245 (Cancer research, 2008)

Tests used:
ABCG2 = target: T1, ABCG2 (Homo sapiens, UniProt Q9UNQ0)
T1 sequence (Q9UNQ0 1-655): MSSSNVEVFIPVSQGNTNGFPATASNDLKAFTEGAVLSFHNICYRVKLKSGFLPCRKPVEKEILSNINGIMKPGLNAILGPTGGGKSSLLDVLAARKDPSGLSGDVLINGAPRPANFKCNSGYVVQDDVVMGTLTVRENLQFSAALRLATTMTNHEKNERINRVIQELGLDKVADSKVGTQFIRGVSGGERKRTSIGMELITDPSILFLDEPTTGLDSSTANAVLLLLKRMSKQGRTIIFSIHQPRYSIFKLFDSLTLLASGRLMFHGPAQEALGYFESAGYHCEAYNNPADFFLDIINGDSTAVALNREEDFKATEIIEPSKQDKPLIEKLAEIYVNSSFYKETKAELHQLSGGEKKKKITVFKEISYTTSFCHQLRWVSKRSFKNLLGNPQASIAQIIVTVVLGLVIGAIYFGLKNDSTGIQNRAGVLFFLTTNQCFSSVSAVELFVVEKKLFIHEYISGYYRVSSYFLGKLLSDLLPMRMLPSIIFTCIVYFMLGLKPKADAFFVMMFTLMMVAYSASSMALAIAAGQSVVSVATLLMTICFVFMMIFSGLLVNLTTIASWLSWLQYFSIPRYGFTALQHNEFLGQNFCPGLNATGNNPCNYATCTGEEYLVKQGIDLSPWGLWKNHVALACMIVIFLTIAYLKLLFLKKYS

ABCB1 (P-glycoprotein) = ABCB1 (P-glycoprotein) (Homo sapiens, UniProt P08183); test: competition of […]-IAAP photoaffinity labeling in membrane vesicles; assay type: binding
Chain of ABCB1 (P-glycoprotein) (P08183 whole entry): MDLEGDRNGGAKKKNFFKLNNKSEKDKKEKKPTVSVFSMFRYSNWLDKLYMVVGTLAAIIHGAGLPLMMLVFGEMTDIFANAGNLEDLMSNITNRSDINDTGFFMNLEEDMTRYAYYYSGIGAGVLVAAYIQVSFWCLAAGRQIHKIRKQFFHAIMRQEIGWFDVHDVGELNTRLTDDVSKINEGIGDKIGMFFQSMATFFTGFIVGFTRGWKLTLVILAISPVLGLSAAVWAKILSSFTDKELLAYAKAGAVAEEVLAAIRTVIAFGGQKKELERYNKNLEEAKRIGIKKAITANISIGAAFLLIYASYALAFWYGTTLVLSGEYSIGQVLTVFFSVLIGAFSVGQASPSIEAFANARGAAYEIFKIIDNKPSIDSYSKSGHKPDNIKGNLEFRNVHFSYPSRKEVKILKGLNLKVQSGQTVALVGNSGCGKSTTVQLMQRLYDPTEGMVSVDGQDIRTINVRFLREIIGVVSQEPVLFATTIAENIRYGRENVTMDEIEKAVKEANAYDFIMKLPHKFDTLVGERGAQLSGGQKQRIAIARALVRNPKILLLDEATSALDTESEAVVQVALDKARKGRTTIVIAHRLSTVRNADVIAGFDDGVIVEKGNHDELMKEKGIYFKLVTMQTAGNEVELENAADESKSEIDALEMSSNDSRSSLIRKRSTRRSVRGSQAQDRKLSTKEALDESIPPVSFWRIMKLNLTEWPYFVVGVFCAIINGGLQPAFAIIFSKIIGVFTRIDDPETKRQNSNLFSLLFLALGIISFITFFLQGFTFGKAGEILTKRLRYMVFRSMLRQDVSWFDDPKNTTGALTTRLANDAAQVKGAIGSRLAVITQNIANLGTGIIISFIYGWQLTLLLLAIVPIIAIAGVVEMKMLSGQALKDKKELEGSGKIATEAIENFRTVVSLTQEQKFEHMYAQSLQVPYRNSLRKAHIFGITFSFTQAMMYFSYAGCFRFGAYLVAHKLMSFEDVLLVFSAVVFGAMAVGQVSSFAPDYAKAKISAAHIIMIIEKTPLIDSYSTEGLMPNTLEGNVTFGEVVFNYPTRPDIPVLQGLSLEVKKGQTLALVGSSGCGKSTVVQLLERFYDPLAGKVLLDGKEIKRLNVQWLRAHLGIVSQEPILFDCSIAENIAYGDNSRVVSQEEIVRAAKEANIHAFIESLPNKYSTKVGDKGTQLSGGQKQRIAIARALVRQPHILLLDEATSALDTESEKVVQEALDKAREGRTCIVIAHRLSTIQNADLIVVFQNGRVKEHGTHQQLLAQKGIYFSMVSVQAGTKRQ

SMILES | inhibition of [3H]-methotrexate uptake in membrane vesicles (ABCG2) | IC50 (ABCB1 (P-glycoprotein)) [nM]
C#Cc1cccc(Nc2ncnc3cc(OCCOC)c(OCCOC)cc23)c1 [erlotinib] | inhibitory effect of lapatinib on methotrexate transport by ABCG2 membrane vesicles is comparable to that of erlotinib and FTC | 
CS(=O)(=O)CCNCc1ccc(-c2ccc3ncnc(Nc4ccc(OCc5cccc(F)c5)c(Cl)c4)c3c2)o1 [lapatinib, N-{3-chloro-4-[(3-fluorobenzyl)oxy]phenyl}-6-[5-({[2-(methylsulfonyl)ethyl]amino}methyl)-2-furyl]-4-quinazolinamine] |  | 2800 ± 600
